Where a SMILES comes first, the peptide text is derived from it. The star is where a group is joined. Biotin = O=C1N[C@H]2[C@H](CS[C@H]2CCCCC(=O)*)N1
Columns and labels:
[1] = molecular target: T1, AR LBD (Pan troglodytes, UniProt O97775); assay: Surface plasmon resonance (Biacore 2000), peptide binding to AR LBD; format: chimp (100% identity to the human form in protein sequence); conditions: for ka1 × 10^-4: association rate, biotinylated peptide immobilised (approx. 250 RU), AR LBD 10, 5, 1 μM and 300 nM, SMRT2 signal subtracted, values are ka1 multiplied by 10^-4; for ka1 × 10^-4 / kd1 × 10^2: step 1 of two-state conformational change model; for ka1 × 10^-4 / Kd2 / kd1 × 10^2 / ka2 × 10^3 / kd2 × 10^3: HBS-P pH 7.4; for Kd2: dissociation constant of step 2, calculated from rate constants, two-state conformational change model; for kd1 × 10^2: dissociation rate, values are kd1 multiplied by 10^2; for ka2 × 10^3: forward rate, values are ka2 multiplied by 10^3; for ka2 × 10^3 / kd2 × 10^3: step 2 of two-state conformational change model; for kd2 × 10^3: reverse rate, values are kd2 multiplied by 10^3
T1 construct: chimp AR LBD (residues 663–919—human numbering); GST (N, cleaved yes); made in house; host or cells: E. coli BL21 (DE3) STAR
T1 sequence (O97775 655-911 limits assumed): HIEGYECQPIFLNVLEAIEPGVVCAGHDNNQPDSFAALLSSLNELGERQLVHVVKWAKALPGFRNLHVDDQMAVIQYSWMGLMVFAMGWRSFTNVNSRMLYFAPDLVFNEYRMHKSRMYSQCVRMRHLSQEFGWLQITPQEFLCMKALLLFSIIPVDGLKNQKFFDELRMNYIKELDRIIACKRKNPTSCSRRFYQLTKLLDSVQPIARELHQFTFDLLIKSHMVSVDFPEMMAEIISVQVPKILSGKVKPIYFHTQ
Protocol: (§1) Expression and purification of the AR LBD for crystallization were performed essentially as described ([Matias et al. 2000]). […] Induction was carried out with 30 μM IPTG at 17 °C for 16–18 h. E. coli cells were lysed in buffer (10 mM Tris, [pH 8.0], 150 mM NaCl, 10% glycerol, 1 mM TCEP, 0.2 mM PMSF) supplemented with 0.5 μg/ml lysozyme, 5 U/ml benzonase, 0.5% CHAPS, and 10 μM DHT. All buffers for further purification steps contained 1 μM DHT. Soluble cell lysate was adsorbed to Glutathione Sepharose 4 Fast Flow resin (Amersham Biosciences), washed with buffer containing 0.1% n-octyl β-glucoside, and eluted with 15 mM glutathione. After cleavage of the GST moiety with thrombin, final purification of the AR LBD was carried out using a HiTrap SP cation exchange column (Amersham Biosciences). Eluted AR LBD was dialyzed overnight at 4 °C against buffer containing 50 mM HEPES (pH 7.2), 10% glycerol, 0.2 mM TCEP, 20 μM DHT, 150 mM Li2SO4, and 0.1% n-octyl β-glucoside, then concentrated to greater than 4 mg/ml for crystallization.
Affinities of peptides to the AR LBD were determined with a Biacore (Piscataway, New Jersey, United States) 2000 instrument. A peptide derived from silencing mediator for RXR and TR 2 (SMRT2) served as a negative control. 1 mM peptide stock solutions in DMSO were diluted into HBS-P buffer (10 mM HEPES [pH 7.4], 150 mM NaCl, 0.005% Surfactant P20) to generate 10 μM working solutions. HBS-P buffer was flowed through the cells to achieve a stable baseline prior to immobilization of the biotinylated peptides. To achieve the binding of approximately 250 RU of peptides to individual cells, working solutions of peptides were diluted to 100 nM in HBS-P buffer. Unbound streptavidin sites were blocked by injection of a 1 mM biotin solution at a rate of 10 μl/min.
Purified AR LBD was diluted into HBS-P buffer to a concentration of 10 μM and injected into all four Flowcells using the Kinject protocol at a flow rate of 10 μl/min (contact time 360 s, dissociation time 360 s). Following the dissociation phase, the surface of the chip was regenerated to remove residual AR LBD by QuickInject of buffer containing 10 mM HEPES and 50% ethylene glycol (pH 11). Following the establishment of a stable baseline, the same procedure was repeated using a series of AR LBD dilutions (5 μM, 1 μM, and 300 nM) in an iterative manner. Analysis of the data was performed using BIAevaluation 3.0 software (Biacore). The SMRT2 signals were subtracted as background from the three remaining peptide signals. Data were best fit using the two-state conformational change model ([Warnmark et al. 2001], [2002]).

[2] = molecular target: T1, AR LBD; assay: FRET-based assay of interaction between synthetic peptide and purified AR LBD; format: binding, chimp (100% identity to the human form in protein sequence); conditions: in vitro; excitation 320 nm, emission 625 and 665 nm; streptavidin-cryptate / streptavidin-XL665; unpublished data
Protocol: Synthetic peptides corresponding to the deduced amino acid sequences from receptor-specific phage were tested for their ability to interact with purified AR LBD using a FRET–based assay format. […] Flourophor conjugates were prepared by incubating either biotinylated peptides with streptavidin-cryptate (Cis Bio International, Bagnols Sur Ceze Cedex, France), or biotinylated AR LBD with streptavidin-XL665 (Cis Bio). Interaction between peptide and AR LBD was monitored by the ratio of energy transfer by excitation at 320 nm and emission at 625 nm and 665 nm.

[3] = molecular target: T1, AR LBD; assay: X-ray crystal structures of AR LBD-peptide complexes, buried surface area; format: chimp (100% identity to the human form in protein sequence); conditions: calculated with CNS from crystal structure; for Buried surface area, +1: +1 residue; for Buried surface area, +1 / Buried surface area, +4 / Buried surface area, +5: side chain atoms only; for Buried surface area, +4: +4 residue; for Buried surface area, +5: +5 residue; for Buried surface area, Total: AR LBD-peptide complex, DHT-bound
Protocol: as §1
Purified, concentrated AR LBD was combined with 3x to 6x molar excess of peptide and incubated 1 h at room temperature before crystallization trials. Complexes were crystallized using the hanging drop vapor diffusion method. Protein–peptide solution was combined in a 1:1 ratio with a well solution consisting of 0.6–0.8 M sodium citrate and 100 mM Tris or HEPES buffer (pH 7–8). Crystals typically appeared after 1–2 d, with maximal size attained within 2 wk. For data collection, crystals were swiped into a cryo-protectant solution consisting of well solution plus 10% glycerol before flash freezing in liquid nitrogen. The addition of ethylene glycol to a well concentration of 10%–20% was later found to both improve crystal quality and enable the freezing of crystals directly out of the drop.
Datasets were collected at 100K at the Advanced Light Source (Lawrence Berkeley Laboratory, Berkeley, California, United States), beamline 8.3.1, with either a ADSC Quantum 315 or Quantum 210 CCD detector. Data were processed using Denzo and Scalepack ([Otwinowski and Minor 1997]). Molecular replacement searches were performed with rotation and translation functions from CNS ([Brunger et al. 1998]). Initial searches for AR–FxxLF were performed using the structure of AR–R1881 (PDB: 1E3G) with R1881 omitted from the search model. Subsequent searches for all other complexes were performed using the refined LBD structure from the AR–FxxLF complex. To minimize the possibility of model bias, FxxLF peptide and DHT were omitted from all molecular replacement searches. Protein models were built by iterative rounds of simulated annealing, conjugate gradient minimization, and individual B-factor refinement in CNS followed by manual rebuilding in Quanta 2000 (Accelrys, San Diego, California, United States) using σA-weighted 2F o − F c, F o − F c, and simulated annealing composite omit maps. Superposition of structures was performed with LSQMAN ([Kleywegt 1996]). Buried surface area calculations were performed with CNS. All figures were generated with PyMOL ([DeLano 2002]). Coordinates and structure factors for all complexes have been deposited in the Protein Data Bank.

| affinity for AR [1] | fold weaker affinity than FxxLF ([1]; Kd ratio relative to FxxLF) | ka1 × 10^-4 [1] | affinity relative to tightest binding p160-derived LxxLL motif, NR box 3 of TIF2 ([1]; compared with earlier value for TIF2 NR box 3 (He and Wilson 2003)) | Kd2 [1] | kd1 × 10^2 [1] | ka2 × 10^3 [1] | kd2 × 10^3 [1] | Buried surface area, +1 [3] | Buried surface area, +4 [3] | Buried surface area, +5 [3] | Buried surface area, Total [3] | affinity relative to FxxLF ([1]; comparison with FxxLF) | Compound | binding to AR in FRET-based screens [2] |
| --- | --- | --- | --- | --- | --- | --- | --- | --- | --- | --- | --- | --- | --- | --- |
| moderate affinity | less than 2 -fold | 6.2±4.3 M^-2s^-1 | more than three times stronger | 1.6±0.2 | 7.0±0.17 M^-1s^-1 | 3.2±0.4 M^--1s^-1 | 5.0±0.04 M^-1s^-1 | 271 Å^2 | 193 Å^2 | 241 Å^2 | 984 Å^2 | – | CC(C)C[C@H](NC(=O)CNC(=O)[C@H](CCCNC(=N)N)NC(=O)[C@H](CO)NC(=O)[C@@H](N)CO)C(=O)N[C@@H](CC(C)C)C(=O)N[C@@H](Cc1c[nH]c2ccccc12)C(=O)N[C@@H](CC(=O)O)C(=O)N[C@@H](CC(C)C)C(=O)N[C@@H](CC(C)C)C(=O)N[C@H](C(=O)N[C@@H](CCCCN)C(=O)N[C@@H](CC(=O)O)C(=O)N[C@@H](CO)C(=O)N[C@@H](CCCNC(=N)N)C(=O)N[C@@H](CO)C(=O)NCC(=O)N[C@@H](CO)C(=O)NCC(=O)N[C@@H](CCCCNC(=O)CCCC[C@@H]1SC[C@@H]2NC(=O)N[C@@H]21)C(=O)O)[C@@H](C)O [LxxLL] (H-SSRGLLWDLLTKDSRSGSGK(Biotin)-OH; N-terminus and C-terminus assumed) | demonstrated to bind AR in FRET-based screens in vitro |
| – | – | 5.2±1.0 M^-2s^-1 | – | 2.6±1.0 | 2.3±0.03 M^-1s^-1 | 1.3±0.5 M^--1s^-1 | 3.5±0.06 M^-1s^-1 | 305 Å^2 | 189 Å^2 | 276 Å^2 | 1012 Å^2 | – | CC(C)C[C@H](NC(=O)[C@H](CO)NC(=O)[C@H](CCC(=O)O)NC(=O)[C@H](Cc1ccccc1)NC(=O)[C@H](CCCNC(=N)N)NC(=O)[C@H](CO)NC(=O)[C@@H](N)CO)C(=O)N[C@@H](Cc1ccccc1)C(=O)N[C@@H](C)C(=O)NCC(=O)N[C@@H](CCC(=O)O)C(=O)N[C@@H](CCCCN)C(=O)N[C@@H](CCC(=O)O)C(=O)N[C@@H](CO)C(=O)N[C@@H](CCCNC(=N)N)C(=O)N[C@@H](CO)C(=O)NCC(=O)N[C@@H](CO)C(=O)NCC(=O)N[C@@H](CCCCNC(=O)CCCC[C@@H]1SC[C@@H]2NC(=O)N[C@@H]21)C(=O)O [FxxLF] (H-SSRFESLFAGEKESRSGSGK(Biotin)-OH; N-terminus and C-terminus assumed) | – |
| – | – | 5.9±1.5 M^-2s^-1 | – | 1.6±0.2 | 3.4±0.04 M^-1s^-1 | 3.6±0.3 M^--1s^-1 | 5.6±0.05 M^-1s^-1 | 315 Å^2 | 187 Å^2 | 313 Å^2 | 937 Å^2 | slightly better than FxxLF | CC(C)C[C@H](NC(=O)[C@H](C)NC(=O)[C@H](C)NC(=O)[C@H](Cc1ccccc1)NC(=O)[C@H](CCCCN)NC(=O)[C@H](CO)NC(=O)[C@@H](N)CO)C(=O)N[C@@H](Cc1c[nH]c2ccccc12)C(=O)N[C@@H](CC(=O)O)C(=O)N1CCC[C@H]1C(=O)N1CCC[C@H]1C(=O)N[C@@H](CCCCN)C(=O)N[C@@H](CC(C)C)C(=O)N[C@@H](CO)C(=O)N[C@@H](CCCNC(=N)N)C(=O)N[C@@H](CO)C(=O)NCC(=O)N[C@@H](CO)C(=O)NCC(=O)N[C@@H](CCCCNC(=O)CCCC[C@@H]1SC[C@@H]2NC(=O)N[C@@H]21)C(=O)O [FxxLW] (H-SSKFAALWDPPKLSRSGSGK(Biotin)-OH; N-terminus and C-terminus assumed) | – |
